“Also recorded” adds a separate entry of the source.
Assays:
[1] = test system: mollusks; settings: cited from earlier work
[2] = test system: amphibians; settings: cited from earlier work
[3] = test system: crustaceans; settings: cited from earlier work
[4] = test system: zooplankton; settings: cited from earlier work
[5] = test system: insects; settings: cited from earlier work
[6] = test system: fish; settings: cited from earlier work
[7] = cited from earlier work
[8] = test system: rats; settings: oral; cited from earlier work
[9] = test system: algae; experiment: Treatment of agricultural-water canal with air-stream-entrained calcium hypochlorite; visual observation of algae; type: in vivo; settings: per quarter-mile canal section
From the text: The device and method of the present invention were employed to treat a canal, and visual observations of the amount of algae present in the canal before this treatment, and periodically after this treatment, are set forth in Tables 1-3 below. (The visual observations are accurate and realistic evaluations because the visual amount of algae in the canal correlates well to actual biological-debris problems.) This canal is fed from a large water reservoir which has about thirty percent of its surface covered with algae. This canal is therefore continuously being inoculated with algae which enters with the source water. The flow rate of the water when entering the canal is about one hundred eighty cubic feet per second. Due to water usage from the various growers along the canal, this initial water flow rate decreases at points along the canal, and then decreases dramatically over the last mile to about twenty cubic feet per second. This canal is a typical example of one which is in need of treatment to remediate organic debris. Prior to the treatments of this Example 1, this canal was being point treated with acrolein every eight to ten days during the height of the irrigation season to obtain a satisfactory treatment. In this Example 1, the canal was treated three times along substantially its entire length by propelling a calcium hypochlorite-entrained air stream to the water surface and to the sides of the canal from a delivery system suspended off a mobile unit as described above. An operator made visual assessments of the degree of organic debris build-up along the canal and adjusted the concentration of calcium hypochlorite in the air stream accordingly. The pre-treatment and post-treatment conditions of the canal are shown in Tables 1, 2 and 3 below where the visual assessment of organic debris, made at each quarter mile along the length of the canal, are reported at: (a) just before treatment; (b) twelve hours after the treatment; (c) about a week (seven or eight days) after the treatment; and about a week and a half (ten, twelve and ten days, respectively) after treatment. The just before treatment assessment for the second and third treatments set forth in Tables 2 and 3 below are also continued-assessments of the prior treatment (i.e., the T2-b observations in Table 2 are the same as the T1-10d observations in Table 1, and the T3-b observations in Table 3 are the same as the T2-12d observations in Table 2). Further, any relative terms in an observation refer to the prior observation made at the given time; for example, the “slightly larger patches” observation under T1-10d at 0.75 to 1.00 miles in Table 1 below refers to the patches being slightly larger than the patches observed at T1-10d at 0.50 to 0.75 miles, and not to the canal condition observed at T1-7d at 0.75 to 1.00 miles.

C=CC=O [Acrolein]
average acute toxicity [1]: highly toxic | average acute toxicity [2]: very highly toxic | average acute toxicity [3]: moderately toxic | average acute toxicity [4]: highly toxic | average acute toxicity [5]: moderately toxic | average acute toxicity [6]: highly toxic | water solubility [7]: 238,000 mg/L

[Ca+2].[O-]Cl.[O-]Cl [calcium hypochlorite]
LD50 [8]: 850 gm/100 kg | Canal Description (visual observation of algae) ([9]; T1-12 h: 12 hr. after Treatment 1, canal section 2.75 to 3.00 miles): Canal visually free of algae. | Canal Description (visual observation of algae) ([9]; T1-12 h: 12 hr. after Treatment 1, canal section 3.25 to 3.50 miles): Canal is visually free of algae. | Canal Description (visual observation of algae) ([9]; T1-12 h: 12 hr. after Treatment 1, canal section 4.75 to 5.00 miles): Small amounts of discolored/dying algae are adhering to the bottom of the canal. | Canal Description (visual observation of algae) ([9]; T1-12 h: 12 hr. after Treatment 1, canal section 5.50 to 5.75 miles): Small amounts of discolored/dying algae are adhering to bottom of the canal. | Canal Description (visual observation of algae) ([9]; T1-12 h: 12 hr. after Treatment 1, canal section 5.75 to 6.00 miles): Small amounts of discolored/dying algae are adhering to the bottom and sides of | Canal Description (visual observation of algae) ([9]; T1-7 d: 7 days after Treatment 1, canal section 0.00 to 0.25 miles): Clear, visually free of algae. | Canal Description (visual observation of algae) ([9]; T1-7 d: 7 days after Treatment 1, canal section 2.75 to 3.00 miles): Slight amount of algae is growing on the water surface of the canal. | Canal Description (visual observation of algae) ([9]; T1-7 d: 7 days after Treatment 1, canal section 3.25 to 3.50 miles): Slight amount of algae is growing on the water surface and along the sides of | Canal Description (visual observation of algae) ([9]; T1-7 d: 7 days after Treatment 1, canal section 5.25 to 5.50 miles): Slight amount of is algae is growing on the water surface and along the sides | Canal Description (visual observation of algae) ([9]; T1-7 d: 7 days after Treatment 1, canal section 5.50 to 5.75 miles): Slight amount of algae is growing on the water surface and along the sides | Canal Description (visual observation of algae) ([9]; T1-7 d: 7 days after Treatment 1, canal section 6.50 to 6.75 miles): Small amount of algae is growing on the water surface. Slight amount of algae | Canal Description (visual observation of algae) ([9]; T1-7 d: 7 days after Treatment 1, canal section 6.75 to 7.00 miles): Small amount of algae is growing on the water surface. Small amount of algae | Canal Description (visual observation of algae) ([9]; T1-10 d: 10 days after Treatment 1): Slight amount of algae is growing along the sides of the canal; also recorded: Slight amount of algae is growing on the water surface and along the sides of; also recorded: Small amount of algae is growing on the water surface and along the sides of; also recorded: Slightly larger patches of algae are growing on the water surface and along | Canal Description (visual observation of algae) ([9]; T2-12 h: 12 hr. after Treatment 2): Canal visually free of algae; also recorded: Small amounts of discolored/dying algae are adhering to bottom of the canal; also recorded: Small amounts of discolored/dying algae are adhering to the bottom and sides of | Canal Description (visual observation of algae) ([9]; T2-8 d: 8 days after Treatment 2, canal section 0.00 to 0.25 miles): Clear, visually free of algae. | Canal Description (visual observation of algae) ([9]; T2-8 d: 8 days after Treatment 2, canal section 3.00 to 3.25 miles): Slight amount of algae is growing on the water surface of the canal. | Canal Description (visual observation of algae) ([9]; T2-8 d: 8 days after Treatment 2, canal section 4.00 to 4.25 miles): Slight amount of algae is growing on the water surface and along the sides of | Canal Description (visual observation of algae) ([9]; T2-8 d: 8 days after Treatment 2, canal section 5.50 to 5.75 miles): Slight amount of algae is growing on the water surface and along the sides | Canal Description (visual observation of algae) ([9]; T2-8 d: 8 days after Treatment 2, canal section 6.50 to 6.75 miles): Small amount of algae is growing on the water surface. The amount of algae | Canal Description (visual observation of algae) ([9]; T2-8 d: 8 days after Treatment 2, canal section 6.75 to 7.00 miles): Small amount of algae on the water surface. The amount of algae on the sides | Canal Description (visual observation of algae) ([9]; T2-12 d: 12 days after Treatment 2): Very slight amount of algae is growing along the sides of the canal; also recorded: Slight amount of algae is growing along the sides of the canal; also recorded: Slight amount of algae is growing on the water surface and along the sides; also recorded: Slight amount of algae is growing on water surface and along the sides and; also recorded: Slightly more algae is growing on water surface and along the sides of the; also recorded: Slightly more algae is growing on the water surface and along the sides of | Canal Description (visual observation of algae) ([9]; T2-b: just before Treatment 2, 10 days after Treatment 1): Slight amount of algae is growing on the water surface and along the sides of the; also recorded: Slightly larger patches of algae are growing on the water surface and along the sides; also recorded: Slight amount of algae is growing along the sides of the canal | Canal Description (visual observation of algae) ([9]; T3-12 h: 12 hr. after Treatment 3, canal section 3.25 to 3.50 miles): Canal visually free of algae. | Canal Description (visual observation of algae) ([9]; T3-12 h: 12 hr. after Treatment 3, canal section 5.00 to 5.25 miles): Small amounts of discolored/dying algae are present. | Canal Description (visual observation of algae) ([9]; T3-12 h: 12 hr. after Treatment 3, canal section 5.75 to 6.00 miles): Small amounts of discolored/dying algae are adhering to the bottom and sides of | Canal Description (visual observation of algae) ([9]; T3-b: just before Treatment 3, 12 days after Treatment 2): Slight amount of algae is growing along the sides of the canal; also recorded: Slightly more algae is growing on the water surface and along the sides of the canal; also recorded: More algae is growing on the water surface of the canal. Small amount of algae is; also recorded: Very slight amount of algae is growing along the sides of the canal; also recorded: More algae is growing on the water surface of the canal. More algae is growing up
